Measurements: patent US20240091317A1, “USE OF GLP-2 ANALOGUES IN PATIENTS WITH RENAL INSUFFICIENCY” (Zealand Pharma A/S, priority 2020, published 2024)
One block for each compound: values may come before it.

Key:
[1] = in particular moderate or severe renal impairment, or ESRD; cited from earlier work
[2] = in vivo; cited from earlier work
[3] = Phase 1 trial: PK of a single subcutaneous dose of 10 mg glepaglutide in subjects with severe renal impairment/ESRD vs normal renal function; type: in vivo, human
Protocol: The study was designed as a two-stage design, open-label, multi-center, non-randomized trial evaluating the PK of a single, subcutaneous dose of 10 mg glepaglutide in subjects with varying degrees of renal function. The renal function was calculated by the estimated glomerular filtration rate (eGFR) according to the Modification of Diet in Renal Disease (MDRD) equation.
Sixteen Caucasian subjects were enrolled, 4 with end stage renal disease (ESRD) not on dialysis (eGFR<15 mL/min), 4 with severe renal impairment (eGFR<30 mL/min) and 8 matching controls with normal renal function (eGFR>90 mL/min) (Table 1). Demographics, except eGFR, was similar across groups (Table 1).
Glepaglutide (ZP1848, 10 mg) was provided in a single-use vial containing 1 mL (an extractable volume of 0.5 mL) of a clear, colourless solution for subcutaneous injection, with a concentration of 20 mg/mL glepaglutide.
PK-blood samples were collected over a 14 day period following a single dose of 10 mg glepaglutide in the abdomen. The PK-samples were analyzed for glepaglutide, ZP2469 and ZP2711 using a GLP-validated LC/MS/MS assay.
The primary PK parameters were area under the curve between dose and last measurable concentration (AUCt), extrapolated to infinity (AUCinf) and calculated from 0 to 168 hours (AUC0-168) and the maximum plasma concentration (Cmax), which were computed for glepaglutide, ZP2469, ZP2711. A constructed analyte “glepaglutide-total” (glepaglutide+ZP2469+ZP2711) was used for the primary endpoint, and analysed using a non-compartmental approach.

Compound: CC[C@H](C)[C@H](NC(=O)[C@H](Cc1ccccc1)NC(=O)[C@H](CC(=O)O)NC(=O)[C@H](CCCNC(=N)N)NC(=O)[C@H](C)NC(=O)[C@H](C)NC(=O)[C@H](CC(C)C)NC(=O)[C@H](CC(N)=O)NC(=O)[C@H](CC(=O)O)NC(=O)[C@H](CC(C)C)NC(=O)[C@@H](NC(=O)[C@@H](NC(=O)[C@H](CC(N)=O)NC(=O)[C@H](CCSC)NC(=O)[C@H](CCC(=O)O)NC(=O)[C@H](CC(=O)O)NC(=O)[C@H](CO)NC(=O)[C@H](Cc1ccccc1)NC(=O)[C@H](CO)NC(=O)CNC(=O)[C@H](CC(=O)O)NC(=O)CNC(=O)[C@@H](N)Cc1c[nH]cn1)[C@@H](C)O)[C@@H](C)CC)C(=O)N[C@@H](CC(N)=O)C(=O)N[C@@H](Cc1c[nH]c2ccccc12)C(=O)N[C@@H](CC(C)C)C(=O)N[C@H](C(=O)N[C@@H](CCC(N)=O)C(=O)N[C@H](C(=O)N[C@@H](CCCCN)C(=O)N[C@H](C(=O)N[C@H](C(=O)N[C@@H](CC(=O)O)C(=O)O)[C@@H](C)O)[C@@H](C)CC)[C@@H](C)O)[C@@H](C)CC [teduglutide]
Clearance in subjects with renal dysfunction [1]: impaired

Compound: GLP-2 [3-33]: truncated GLP-2 [3-33] (DGSFSDEMNTILDNLAARDFINWLIQTKITD; Glucagon-like peptide 2; UniProt P01275 148-178, looked up, fragment)
Half-life in humans [2]: 27 min

Clearance in patients with renal impairment ([3]; human, in vivo): cleared normally
Difference in total exposure (AUC0-168h) and peak plasma concentrations (Cmax), severe renal impairment/ESRD vs normal renal function ([3]; single SC dose): no clinically relevant difference
Difference in primary PK parameters (AUCt, AUCinf, AUC0-168, Cmax), severe renal impairment and ESRD vs healthy matched subjects ([3]; single SC dose 10 mg glepaglutide): no statistically significant differences
Compound: H-HGEGTFSSELATILDALAARDFIAWLIATKITDKKKKKK-NH2 [ZP1848]

Compound: Hy-His-Ala-Asp-Gly-Ser-Phe-Ser-Asp-Glu-Met-Asn-Thr-Ile-Leu-Asp-Asn-Leu-Ala-Ala-Arg-Asp-Phe-Ile-Asn-Trp-Leu-Ile-Gln-Thr-Lys-Ile-Thr-Asp-OH [GLP-2 [1-33]]
Half-life in humans [2]: around 7 minutes
